“And” between values parts separate entries of the source, which are not always exact repeats. Equal values may be shown once.

Data set [1] addresses T1, QR1 (NQO1) (Homo sapiens, UniProt P15559).
T1 construct: purchased Sigma-Aldrich
As to the kind of experiment: Selectivity assay with QR1 in place of QR2, absorbance readout. Type of data set: biochemical.

The target of data set [2] is T1, QR1 (NQO1). As to the kind of experiment: Selectivity assay with QR1 in place of QR2, fluorescence readout. It is filed as biochemical.
Data set [3] addresses T2, QR2 (Homo sapiens, UniProt P16083).
T2 sequence (P16083 1-231): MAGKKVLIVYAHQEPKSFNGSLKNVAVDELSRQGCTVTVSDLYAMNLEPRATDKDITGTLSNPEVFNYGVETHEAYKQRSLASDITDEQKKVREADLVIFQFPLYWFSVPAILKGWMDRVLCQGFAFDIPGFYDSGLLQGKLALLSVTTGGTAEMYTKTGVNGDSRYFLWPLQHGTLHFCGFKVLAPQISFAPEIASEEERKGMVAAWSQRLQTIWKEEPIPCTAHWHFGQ
As to the kind of experiment: QR2 enzymatic activity assay (menadione/BNAH), fluorescence readout. Type of data set: biochemical. On the set-up: purchased Sigma-Aldrich.

Data set [4] in a line: Cell toxicity assay (ATP depletion, CellTiter Glo). The conditions noted are these: human. On the technique in general: ATP-based viability assays read luminescence as a measure of living cells.
Data set [5] has as its system THLE-2 cells. In words: Cell toxicity assay (ATP depletion, CellTiter Glo). The settings on record: 72 h incubation, CellTiter Glo.
Data set [6] has as its target T2, QR2. In words: Cellular thermal shift assay (CETSA) of QR2 in HEK293T cells. Type of data set: cell-based. Details: endogenous in cells; host or cells: HEK293T. As for the experimental part:
The CETSA assay was performed as described (Miettinen and Björklund, 2014) with some modifications. Briefly, HEK293T cells were trypsinized (Biological Industries), washed in PBS (Sigma-Aldrich), and then suspended in PBS containing protease inhibitor cocktail (Roche). The suspended cells were then divided into two Eppendorf tubes and were treated with either: a compound or DMSO (Sigma-Aldrich) for 1 h at 37° C. under shaking. Following treatment, each sample was divided into PCR tubes (100 μL/tube) and subjected to a temperature gradient (ranging from 63 to 80° C.) for 3 minutes. Cell lysates were obtained by 3-cycles of freeze-thaw using liquid nitrogen and a thermal block set to 25° C. Samples were then centrifuged at 15,000 rpm at 4° C. for 20 min and were subsequently analyzed by western blot targeting QR2 (1:100, Santa Cruz; sc-271665). The isothermal dose response fingerprint (ITDRF) experiments were done using a constant temperature of 73° C. Band intensities were normalized to the highest concentration and superoxide dismutase 1 (SOD1) levels (1:200, Santa Cruz; sc-17767). Analysis of the results were performed according to Jafari et al., (2014) using GraphPad Prism software.
To establish direct target engagement, as well as cell membrane permeability, a cellular thermal shift assay (CETSA) was carried out (see methods), using the leading compounds YB-537, YB-800, and YB-808. Following 1 h preincubation with 5 μM of each of the compounds, or vehicle, thermal aggregation curves (Tagg) of QR2 expressed in HEK293T were measured in increasing temperatures. […] Based on the Tagg curves, the inventors selected 73° C. for isothermal dose-response fingerprint (IDTRF) experiments (FIG. 2B).

For data set [7], the system named is HEK293T cells. As to the kind of experiment: XTT cell viability assay. Type of data set: cell-based. The settings on record: 3 h incubation, 20 nM-20 μM. As for the experimental part: HEK293FT cells were cultured with penicillin-streptomycin antibiotics in Invitrogen DMEM (Thermo Fisher Scientific) with 10% fetal bovine serum and L-glutamine and grown to 80-90% confluence in 100 mm plates, while being passaged every 2-3 days. For the XTT assay (Biological Industries), cells were then collected, centrifuged, and resuspended in fresh minimum essential medium, and seeded at 50,000 cells/well in 96-well, poly-L-lysine-coated Nunc black, clear flat-bottomed plates (Thermo Fisher Scientific). The next day, the cells were treated with increasing doses of QR2 inhibitors or vehicle for 3 h, and the XTT assay was then carried out as according to the manufacturer's instructions.
A general note: Tetrazolium dyes change colour on reduction, which living cells bring about.

T1 sequence (P15559 whole entry): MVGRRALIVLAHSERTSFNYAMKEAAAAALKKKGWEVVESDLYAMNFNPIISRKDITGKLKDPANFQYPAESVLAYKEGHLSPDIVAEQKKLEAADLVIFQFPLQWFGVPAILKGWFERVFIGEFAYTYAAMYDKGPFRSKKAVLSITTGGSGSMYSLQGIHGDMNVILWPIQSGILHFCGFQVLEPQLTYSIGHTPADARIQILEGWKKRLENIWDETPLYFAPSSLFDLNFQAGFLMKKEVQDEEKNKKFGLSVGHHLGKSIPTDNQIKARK

In general, IC50 refers to the concentration needed to halve the response being measured. As usually defined, the EC50 is the concentration needed to bring the measured effect to its halfway point. For the compound `Cc1ccc(-c2cn3cccc(C)c3n2)cc1S(=O)(=O)N1CCCC1` [YB-808], the IC50 in data set [1] was > 9.99 µM; in data set [2], > 9.99 µM; in data set [3], 0.01 µM. In data set [4], this compound showed an IC50 at 72 h of 59.7 µM. For the same compound, in data set [5], the “median lethal dose (LD50) in THLE cells” value is 59.7 µM and 59.704 µM. The “thermal stability of QR2 (thermal aggregation curve) versus vehicle” value in data set [6] (5 μM, 1 h preincubation) is “shifts of thermal stability”. The EC50 in data set [6] (CETSA at 73° C., read-out: EC50 of QR2 stabilization (isothermal dose-response fingerprint)) turned out to be 0.013 µM. Further, the “toxicity in XTT assay” value in data set [7] was “no toxicity”.

(Values after patent US20240228481A1, “NOVEL SULFONAMIDE SERIES OF QR2 INHIBITORS TO TACKLE OXIDATIVE STRESS AND COGNITIVE DECLINE” (CARMEL HAIFA UNIVERSITY ECONOMIC CORPORATION LTD., priority 2021, published 2024).)
